Test results reported in patent publication US20090012045A1, “Methods of Treating Cell Proliferative Disorders” (RIGEL PHARMACEUTICALS, INC., priority 2007, published 2009).

What was measured:
A498 = A498 (Renal Cancer)
SF-539 = SF-539 (CNS Cancer)
MCF7 = MCF7 (Breast Cancer)
SK-OV-3 = SK-OV-3 (Ovarian Cancer)
T-47D = T-47D (Breast Cancer)
OVCAR-8 = OVCAR-8 (Ovarian Cancer)
SNB-19 = SNB-19 (CNS Cancer)
SW-620 = SW-620 (Colon Cancer)
SNB-75 = SNB-75 (CNS Cancer)
HS 578T = HS 578T (Breast Cancer)
MOLT-4 = MOLT-4 (Leukemia)
TK-10 = TK-10 (Renal Cancer)
OVCAR-5 = OVCAR-5 (Ovarian Cancer)
NCI-H226 = NCI-H226 (Non-Small Cell Lung Cancer)
NCI-H522 = NCI-H522 (Non-Small Cell Lung Cancer)
NCI/ADR-RES = NCI/ADR-RES (Breast Cancer)
ACHN = ACHN (Renal Cancer)
K-562 = K-562 (Leukemia)
OVCAR-3 = OVCAR-3 (Ovarian Cancer)
HCC-2998 = HCC-2998 (Colon Cancer)
MALME-3M = MALME-3M (Melanoma)
CAKI-1 = CAKI-1 (Renal Cancer)
DU-145 = DU-145 (Prostate Cancer)
MDA-MB-231/ATCC = MDA-MB-231/ATCC (Breast Cancer)
SK-MEL-28 = SK-MEL-28 (Melanoma)
IGROV1 = IGROV1 (Ovarian Cancer)
UACC-257 = UACC-257 (Melanoma)

COc1cc(Nc2ncc(F)c(Nc3ccc4c(n3)NC(=O)C(C)(C)O4)n2)cc(OC)c1OC.O=S(=O)(O)c1ccccc1 [Compound 1 (besylate salt), N4-(2,2-Dimethyl-3-oxo-4H-5-pyrid[1,4]oxazin-6-yl)-5-fluoro-N2-(3,4,5-trimethoxyphenyl)-2,4-pyrimidinediamine Benzenesulfonic Acid Salt]
GI50 (A498): 0.36 µM
CC50 (A498; read-out: LC50): > 100 µM
GI50 (SF-539): 0.605 µM
CC50 (SF-539; read-out: LC50): > 100 µM
GI50 (MCF7): 2.72 µM
TGI (MCF7): >1.00E−4
CC50 (MCF7; read-out: LC50): > 100 µM
GI50 (SK-OV-3): 0.429 µM
TGI (SK-OV-3): >1.00E−4
CC50 (SK-OV-3; read-out: LC50): > 100 µM
TGI (T-47D): >1.00E−4
CC50 (T-47D; read-out: LC50): > 100 µM
GI50 (OVCAR-8): > 100 µM
TGI (OVCAR-8): >1.00E−4
CC50 (OVCAR-8; read-out: LC50): > 100 µM
GI50 (SNB-19): > 100 µM
TGI (SNB-19): >1.00E−4
CC50 (SNB-19; read-out: LC50): > 100 µM
TGI (SW-620): >1.00E−4
CC50 (SW-620; read-out: LC50): > 100 µM
GI50 (SNB-75): 0.871 µM
TGI (SNB-75): >1.00E−4
CC50 (SNB-75; read-out: LC50): > 100 µM
GI50 (HS 578T): 1.19 µM
TGI (HS 578T): >1.00E−4
CC50 (HS 578T; read-out: LC50): > 100 µM
GI50 (MOLT-4): 4.82 µM
TGI (MOLT-4): >1.00E−4
CC50 (MOLT-4; read-out: LC50): > 100 µM
TGI (TK-10): >1.00E−4
CC50 (TK-10; read-out: LC50): > 100 µM
GI50 (OVCAR-5): > 100 µM
TGI (OVCAR-5): >1.00E−4
CC50 (OVCAR-5; read-out: LC50): > 100 µM
GI50 (NCI-H226): 0.497 µM
CC50 (NCI-H226; read-out: LC50): > 100 µM
TGI (NCI-H522): >1.00E−4
CC50 (NCI-H522; read-out: LC50): > 100 µM
GI50 (NCI/ADR-RES): > 100 µM
TGI (NCI/ADR-RES): >1.00E−4
CC50 (NCI/ADR-RES; read-out: LC50): > 100 µM
GI50 (ACHN): 1.24 µM
TGI (ACHN): >1.00E−4
CC50 (ACHN; read-out: LC50): > 100 µM
GI50 (K-562): > 100 µM
TGI (K-562): >1.00E−4
CC50 (K-562; read-out: LC50): > 100 µM
GI50 (OVCAR-3): > 100 µM
TGI (OVCAR-3): >1.00E−4
CC50 (OVCAR-3; read-out: LC50): > 100 µM
GI50 (HCC-2998): > 100 µM
TGI (HCC-2998): >1.00E−4
CC50 (HCC-2998; read-out: LC50): > 100 µM
GI50 (MALME-3M): > 100 µM
TGI (MALME-3M): >1.00E−4
CC50 (MALME-3M; read-out: LC50): > 100 µM
GI50 (CAKI-1): 0.0515 µM
TGI (CAKI-1): 2.44E−6
CC50 (CAKI-1; read-out: LC50): > 100 µM
TGI (DU-145): >1.00E−4
CC50 (DU-145; read-out: LC50): > 100 µM
TGI (MDA-MB-231/ATCC): >1.00E−4
CC50 (MDA-MB-231/ATCC; read-out: LC50): > 100 µM
GI50 (SK-MEL-28): > 100 µM
TGI (SK-MEL-28): >1.00E−4
CC50 (SK-MEL-28; read-out: LC50): > 100 µM
GI50 (IGROV1): 0.796 µM
TGI (IGROV1): >1.00E−4
CC50 (IGROV1; read-out: LC50): > 100 µM
GI50 (UACC-257): > 100 µM
TGI (UACC-257): >1.00E−4
CC50 (UACC-257; read-out: LC50): > 100 µM
